Laboratory results as given in ChEMBL document CHEMBL1781910, “Design, synthesis, and characterization of piperazinedione-based dual protein inhibitors for both farnesyltransferase and geranylgeranyltransferase-I” (Eur J Med Chem, 2011).
Activity calls are given as the source filed them. No cut-off for these calls is given here.

Key:
[1] = Inhibition of rat GGTase-1 using geranylgeranyl-pyrophosphate and dansyl-GCVLL as substrate preincubated for 5 mins measured after 15 mins by fluorescence assay
[2] = Inhibition of rat FTase using farnesylpyrophosphate and dansyl-GCVLS as substrate preincubated for 5 mins measured after 15 mins by fluorescence assay
[3] = species: Rattus norvegicus; assay: Bisubstrate inhibition of rat FTase at 20 to 40 nM using farnesylpyrophosphate and dansyl-GCVLS as substrate by double-reciprocal plot analysis
[4] = species: Rattus norvegicus; assay: Bisubstrate inhibition of rat GGTase-1 at 20 to 40 nM using geranylgeranyl-pyrophosphate and dansyl-GCVLL as substrate by double-reciprocal plot analysis

| IC50 [1] | IC50 [2] | inhibition [3] | inhibition [4] | Compound |
| --- | --- | --- | --- | --- |
| 1960 nM | 183 nM |  |  | COc1ccc(CN2C(=O)CNC(=O)[C@@H]2Cc2ccccc2)cc1 |
| 160 nM | 45.1 nM |  |  | COc1ccc(CN2C(=O)CNC(=O)[C@@H]2CSCc2ccccc2)cc1 |
| 1200 nM | 346 nM |  |  | COc1ccc(CN2C(=O)CNC(=O)[C@H]2CC(C)C)cc1 |
| 410 nM | 118 nM |  |  | COc1ccc(C[C@@H]2C(=O)NCC(=O)N2Cc2ccco2)cc1 |
| 92.3 nM | 22.3 nM |  |  | O=C1NCC(=O)N(Cc2ccc(Oc3ccc(Cl)c(Cl)c3)cc2)[C@H]1Cc1c[nH]c2ccccc12 |
| 520 nM | 58.8 nM |  |  | COc1ccc(CN2C(=O)CNC(=O)[C@@H]2Cc2c[nH]c3ccccc23)cc1 |
| 590 nM | 107 nM |  |  | COc1ccc(CN2C(=O)CNC(=O)[C@@H]2Cc2c[nH]cn2)cc1 |
| 380 nM | 129 nM |  |  | COc1ccc(C[C@@H]2C(=O)NCC(=O)N2Cc2ccc(OC)cc2)cc1 |
| 88.1 nM | 132 nM |  |  | O=C1NCC(=O)N(Cc2ccc(N3CCOCC3)cc2)[C@@H]1Cc1c[nH]c2ccccc12 |
| 470 nM | 70.7 nM |  |  | COc1ccc(CN2C(=O)CNC(=O)[C@H]2CSCc2ccccc2)cc1 |
| 150 nM | 39.8 nM |  |  | COc1ccc(CN2C(=O)CNC(=O)[C@H]2Cc2c[nH]c3ccccc23)cc1 |
| 220 nM | 52.4 nM |  |  | O=C1NCC(=O)N(Cc2ccco2)[C@@H]1Cc1c[nH]c2ccccc12 |
| 880 nM | 188 nM |  |  | COc1ccc(C[C@H]2C(=O)NCC(=O)N2Cc2ccc(OC)cc2)cc1 |
| 630 nM | 41.7 nM |  |  | O=C1NCC(=O)N(Cc2ccc(Br)cc2)[C@H]1Cc1c[nH]c2ccccc12 |
| 320 nM | 43.2 nM |  |  | N#Cc1ccc(CN2C(=O)CNC(=O)[C@@H]2Cc2c[nH]c3ccccc23)cc1 |
| 760 nM | 99.1 nM |  |  | O=C1NCC(=O)N(Cc2ccco2)[C@@H]1CSCc1ccccc1 |
| 120 nM | 29.8 nM |  |  | O=C1NCC(=O)N(Cc2ccc(Br)cc2)[C@@H]1Cc1c[nH]c2ccccc12 |
| 32.3 nM | 17.8 nM |  |  | O=C1NCC(=O)N(Cc2ccc(Oc3cccc(Cl)c3)cc2)[C@@H]1Cc1c[nH]c2ccccc12 |
| 3200 nM | 541 nM |  |  | CC(C)[C@H]1C(=O)NCC(=O)N1Cc1ccco1 |
| 700 nM | 190 nM |  |  | COc1ccc(CN2C(=O)CNC(=O)[C@@H]2CCSC)cc1 |
| 5210 nM | 1100 nM |  |  | COc1ccc(CN2C(=O)CNC(=O)[C@@H]2C)cc1 |
| 480 nM | 44.7 nM |  |  | O=C1NCC(=O)N(Cc2ccc(F)cc2)[C@@H]1Cc1c[nH]c2ccccc12 |
| 3920 nM | 582 nM |  |  | COc1ccc(CN2C(=O)CNC(=O)[C@@H]2CC(C)C)cc1 |
| 3880 nM | 476 nM |  |  | CC(C)C[C@H]1C(=O)NCC(=O)N1Cc1ccco1 |
| 1700 nM | 479 nM |  |  | COc1ccc(CN2C(=O)CNC(=O)[C@H]2C(C)C)cc1 |

| IC50 [1] | IC50 [2] | inhibition [3] | inhibition [4] | Compound |
| --- | --- | --- | --- | --- |
| 460 nM | 142 nM |  |  | COc1ccc(CN2C(=O)CNC(=O)[C@H]2Cc2ccccc2)cc1 |
| 3820 nM | 774 nM |  |  | COc1ccc(CN2C(=O)CNC(=O)[C@@H]2C(C)C)cc1 |
| 123 nM | 225 nM |  |  | O=C1NCC(=O)N(Cc2ccc(N3CCOCC3)cc2)[C@H]1Cc1c[nH]c2ccccc12 |
| 1050 nM | 234 nM |  |  | COc1ccc(C[C@H]2C(=O)NCC(=O)N2Cc2ccco2)cc1 |
| 219 nM | 34 nM |  |  | COc1c(Cl)cc(Cl)cc1CN1C(=O)CNC(=O)[C@@H]1Cc1c[nH]c2ccccc12 |
| 320 nM | 109 nM |  |  | COc1ccc(CN2C(=O)CNC(=O)[C@H]2CCSC)cc1 |
| 730 nM | 121 nM |  |  | CSCC[C@@H]1C(=O)NCC(=O)N1Cc1ccco1 |
| 620 nM | 177 nM |  |  | O=C1NCC(=O)N(Cc2ccco2)[C@@H]1Cc1ccccc1 |
| 5220 nM | 1560 nM |  |  | C[C@H]1C(=O)NCC(=O)N1Cc1ccco1 |
| 96.5 nM | 26.5 nM |  |  | O=C1NCC(=O)N(Cc2ccc(Oc3cccc(Cl)c3)cc2)[C@H]1Cc1c[nH]c2ccccc12 |
| 1660 nM | 421 nM |  |  | CC(C)C[C@@H]1C(=O)NCC(=O)N1Cc1ccco1 |
| 790 nM | 72.1 nM |  |  | O=C1NCC(=O)N(Cc2ccco2)[C@H]1Cc1c[nH]c2ccccc12 |
| 130 nM | 38.7 nM |  |  | N#Cc1ccc(CN2C(=O)CNC(=O)[C@H]2Cc2c[nH]c3ccccc23)cc1 |
| 1820 nM | 160 nM |  |  | O=C1NCC(=O)N(Cc2ccco2)[C@H]1Cc1ccccc1 |
| 2830 nM | 621 nM |  |  | COc1ccc(CN2C(=O)CNC(=O)[C@H]2C)cc1 |
| 180 nM | 78.5 nM |  |  | COc1ccc(CN2C(=O)CNC(=O)[C@H]2Cc2c[nH]cn2)cc1 |
| 770 nM | 78.2 nM |  |  | O=C1NCC(=O)N(Cc2ccc(F)cc2)[C@H]1Cc1c[nH]c2ccccc12 |
| 520 nM | 42 nM |  |  | O=C1NCC(=O)N(Cc2ccc(Cl)cc2)[C@H]1Cc1c[nH]c2ccccc12 |
| 1920 nM | 346 nM |  |  | CC(C)[C@@H]1C(=O)NCC(=O)N1Cc1ccco1 |
| 78.2 nM | 22.1 nM |  |  | COc1c(Cl)cc(Cl)cc1CN1C(=O)CNC(=O)[C@H]1Cc1c[nH]c2ccccc12 |
| 1890 nM | 189 nM |  |  | CSCC[C@H]1C(=O)NCC(=O)N1Cc1ccco1 |
| 3830 nM | 971 nM |  |  | C[C@@H]1C(=O)NCC(=O)N1Cc1ccco1 |
| 21 nM | 13.1 nM | Active | Active | O=C1NCC(=O)N(Cc2ccc(Oc3ccc(Cl)c(Cl)c3)cc2)[C@@H]1Cc1c[nH]c2ccccc12 |
| 170 nM | 33.1 nM |  |  | O=C1NCC(=O)N(Cc2ccc(Cl)cc2)[C@@H]1Cc1c[nH]c2ccccc12 |
| 270 nM | 68.9 nM |  |  | O=C1NCC(=O)N(Cc2ccco2)[C@H]1CSCc1ccccc1 |

| Compound | IC50 [1] | IC50 [2] | inhibition [3] | inhibition [4] |
| --- | --- | --- | --- | --- |
| O=C1NCC(=O)N(Cc2ccco2)[C@H]1Cc1c[nH]cn1 | 980 nM | 97.2 nM |  |  |
| O=C1NCC(=O)N(Cc2ccco2)[C@@H]1Cc1c[nH]cn1 | 350 nM | 70.6 nM |  |  |
